These results are taken from patent US7947312B2, “Method of preparation and composition of a water soluble extract of the bioactive component of the plant species Uncaria for enhancing immune, anti-inflammatory, anti-tumor and DNA repair processes of warm blooded animals” (priority 2002, dated 2011).

In series [1] the test system is HL-60 human leukemic cells. In words: In vitro cytotoxicity in HL-60 cells, MTT assay (Table 2). The class given is cell-based. The following applies: Homo sapiens, HL-60; no base hydrolysis. As for the experimental part: In Table 2, the in vitro cytotoxicity of the various components were determined in HL-60 human leukemic cells using the MTT assay and calculation of IC50 values as described in detail elsewhere. Quinic acid ester content was determined by the Bartos method (Bartos, 1980). […] The quinic acid traveling between Rf=0.2-0.3 was eluted from the TLC plates with 1% aqueous ammonia and the relative quantity estimated by absorption at 200 nm as ± being less than 0.050 and “++++” denoting the highest amount detected, with a decrease in the number of “+” signs corresponding to a decrease in the amount of QA detected.
A general note: Tetrazolium dyes change colour on reduction, which living cells bring about.

The subject of the next series is NF-κB. In words: NF-κB reporter (luciferase) in transfected Jurkat T cells. Conditions: PMA 50 ng/ml and ionomycin 1 μM, 2 h pre-culture, 6 h stimulation. Type of series: cell-based, human. The procedure:
FIG. 5A illustrates Jurkat T that are cells transfected with a NF-κB reporter construct were pre-cultured with various concentrations of QA or C-MED-100® for two hours. PMA (50 ng/ml) and ionomycin (1 μM) were thereafter added and the cells incubated for another six hours. The mean induction of luciferase activity in triplicate cultures from one representative experiment out of four are shown (left panel). QA induced no cell death or apoptosis in Jurkat T cells at concentrations which inhibited NF-κB activity. Jurkat T cells were incubated with various concentrations of QA for 24 hours and thereafter stained with Annexin V and 7AAD before analysis by flow cytometry. The data are the mean values±S.D. of triplicates from one representative experiment out of two performed (right panel). Transient transfection and analysis of luciferase activity: The reporter construct containing NF-κB binding sequences and the luciferase reporter gene was previously described. […] The cells were lysed and aliquots of the lysates analyzed for luciferase activity using the Luciferase Assay System (Promega, Madison, Wis.). Luminiscence was quantitated in a MicroLumat LB 96 P luminometer (EG&G Berthold, Wallac […], Upplands Väsby, Sweden).

The test system of series [2] is human HL-60 leukemic cells. As to the kind of experiment: In vitro growth inhibition by QA salts in cultured HL-60 cells, MTT, 72 hr (FIG. 8). The class given is cell-based. Conditions: for in vitro cytotoxicity compared to C-MED-100 (FIG. 8): HL-60 cells. The procedure: QA was purchased from Sigma (>99%). QA salts were synthesized by neutralization with the appropriate base, i.e., NH4OH, NaOH, Ca(OH)2, Zn(OH)2, LiOH, KOH, lysine or histidine. Serial dilutions of test compounds were added to human HL-60 leukemic cells (0.05×10^6 cells/ml) in 96-well, flat bottomed microtiter plates to give final concentrations in the cultures up to 3000 μg/ml. The plates were incubated for 72 hr at 37 C, pulsed with 20 μl MTT (5 mg/ml) for 3 hr, and the color estimated spectrophotometrically at 540 nm as described previously. (Schweitzer, C M et al. Spectrophotometric determination of clonogenic capacity of leukemic cells in semisolid microtiter culture systems. Experimental Hematology 21: 573-578, 1993). IC50 values were calculated and compared based on the live/dead ratio of cells.

The next series has as its system Raji cells. As to the kind of experiment: Raji cell death and apoptosis (Annexin V / 7AAD flow cytometry). Type of series: cell-based, human. The text has this:
Cells from the same cultures as in FIG. 3B were stained with Annexin V and 7AAD and analyzed by flow cytometry. The results are presented as the mean number of Annexin V^+ 7AAD^− (apoptotic) or 7AAD^+ (dead) cells±S.D. of duplicates from three experiments with similar results. Statistically significant differences (*p<0.05) and (**p<0.01), compared to Raji cells grown in medium (no drug).
Cell cultures: Raji human Burkitt's lymphoma (CCL-86), Jurkat human acute T-cell leukemia (TIB-152), 70Z/3 mouse pre-B lymphocyte cell line (TIB-158), or mouse spleen cells were used in the experiments. The cells were cultured in RPMI medium (Life Technologies) supplemented with 10% FCS, 10 mM HEPES buffer, antibiotics, 50 μM 2-mercaptoethanol and 1 mM sodium pyruvate (all supplements from Life Technologies) at 37° C., 5% CO2. The number of Raji cells in duplicate cultures were determined with a Coulter Z1 cell counter (Beckman Coulter Inc, Fullerton, Calif., USA) three times each. The number of viable and dead cells were determined using trypan blue exclusion, by counting three independent samples from duplicate cultures. […] Proliferation was detected by measuring thymidine incorporation after a 4 hours pulse with 1 μCi ^3[H]-thymidine (Amersham Pharmacia).
In general terms: In flow cytometry, cells or beads pass a laser one at a time.

Counter-ions that a name gives are not always drawn.

Take `O=C(O)[C@]1(O)C[C@@H](O)[C@@H](O)[C@H](O)C1` [QAA, quinic acid ammonium salt]: the IC50 (as a rule, the point on the concentration scale where inhibition reaches its midpoint) in series [1] is 500 µg/mL; in series [2] (Homo sapiens, HL-60), ≤ 1100 µg/mL. In addition, the “NF-κB activity (luciferase reporter)” value in the series on NF-κB is “inhibited the NF-κB activity to a similar extent as QA”. The “in vitro cytotoxicity compared to C-MED-100 (FIG. 8)” value in series [2] is listed as “in vitro cytotoxicity comparable to that of C-MED-100®”. In addition, the “induction of cell death in Raji cells” value with Raji cells was “do not induce cell death”.

With `O=C(O)C1(O)CC(O)C(O)C(O)C1` (stereo not drawn) [QA, 1,3,4,5-tetrahydroxy-cyclohexanecarboxylic acid], the IC50 in series [1] is > 2300 µg/mL. Also, the “NF-κB activity (luciferase reporter)” value with NF-κB was “in a dose dependent manner, inhibited the NF-κB activity”. In addition, the “in vitro cytotoxicity compared to C-MED-100 (FIG. 8)” value in series [2] was “much greater in vitro cytotoxicity than does C-MED-100®”. Moreover, the “induction of cell death in Raji cells” value with Raji cells was “do not induce cell death”.
